# Measurements taken from patent EP4400100A1, “ANT[…] USE IN THE TREATMENT OF CANCER” (Instituto de Investigación Biomédica de Salamanca De la …, priority 2023, dated 2024).
# What was measured:
# Format in all cases: cell-based
# [1] = system: androgen-treated cancer cell lines (AR+ and AR-); test: Cell growth after 7 days of treatment with dihydrotestosterone, enzalutamide and their combination; conditions: for cell growth on androgen stimulation: DHT 10 nM
# Procedure: (§1) • Figure 1. […] Study of cell proliferation by MTT assay in AR+ MCF7, BT474, BT549 and HS 578T lines and in AR-HCC1937, HCC1569 and MDA-MB-231 lines at 24, 48 and 72 hours after enzalutamide treatment. Error bars are not shown when smaller than the symbol size. IC50 (best fit and 95% confidence interval) shown below. • Figure 2. […] Cell viability study by Annexin V/propidium iodide labelling in AR+ MCF7, BT474, BT549 and HS 578T lines and in AR- HCC1937, HCC1569 and MDA-MB-231 lines after 72 hours of enzalutamide treatment. Error bars represent SD. Significance between C- and different conditions shown without brackets (^∗p < 0.05, ^∗∗p < 0.01, ★p<0.001). • Figure 3. A) Effect of […] dihydrotestosterone, 10 µM enzalutamide and their combination on the indicated cell lines after 7 days of treatment. Data are the average of three independent experiments. Error bars represent SD. Statistically significant differences between C- and different conditions are shown without brackets (*p < 0.05, **p < 0.01, *p<0.001). […] Study of cell proliferation by MTT assay in the AR+ LN18 line and in the AR- SKOV-3 and CAL33 lines at 24, 48 and 72 hours after treatment with enzalutamide.
# To assess whether the effect of enzalutamide is androgen-independent, we tested the effect of enzalutamide on androgen-treated cancer cell lines. We studied the effects of dihydrotestosterone (DHT) (10 nM), enzalutamide (10 µM) and their combination on the different lines (Figure 3A).
# [2] = system: AR+ MCF7, BT474, BT549 and HS 578T lines and AR- HCC1937, HCC1569 and MDA-MB-231 lines; test: Cell proliferation by MTT assay in breast cancer cell lines
# Procedure: as §1
# [3] = system: AR+ MCF7, BT474, BT549 and HS 578T lines and AR- HCC1937, HCC1569 and MDA-MB-231 lines; test: Apoptosis / cell viability by Annexin V/propidium iodide labelling and flow cytometry in breast cancer cell lines; conditions: varying concentrations, 72 hours, independent of receptor status
# Procedure: as §1
# [4] = system: AR+ LN18 line and AR- SKOV-3 and CAL33 lines; test: Cell proliferation by MTT assay in ovarian, glioblastoma and head and neck cancer cell lines; conditions: SKOV-3 (AR-), 24, 48 and 72 hours, preliminary results
# Procedure: as §1
structure (smiles),measurement,setting,value
C[C@]12CCC(=O)C[C@@H]1CC[C@@H]1[C@@H]2CC[C@]2(C)[C@@H](O)CC[C@@H]12 [dihydrotestosterone],cell growth on androgen stimulation,[1]; BT474 (AR+) and AR- lines,No significant differences
same,cell growth on androgen stimulation,"[1]; HS 578 T, followed by BT549 and MCF7 (AR+)",highest increase in cell growth
CNC(=O)c1ccc(N2C(=S)N(c3ccc(C#N)c(C(F)(F)F)c3)C(=O)C2(C)C)cc1F [enzalutamide],"cell growth inhibition, ranking of cell lines","[2]; MDA-MB-231 (AR-) line, 24, 48 or 72 hours, followed by HCC1569 (AR-), BT474 (AR+) and BT549 (AR+)",the most affected
same,cell proliferation,"[2]; all breast cancer cell lines tested (AR+ and AR-), 24, 48 and 72 hours of treatment, higher efficacy at 72 hours",inhibited cell proliferation in a dose- and time-dependent manner in all cell lines tested
same,apoptosis,[3],induced apoptosis in a dose-dependent manner
same,inhibition of proliferation,[1]; enzalutamide 10 µM alone,induced a higher inhibition of proliferation than that observed at 72 hours
same,inhibition of cell proliferation,"[1]; enzalutamide 10 µM combined with DHT 10 nM, AR+ and AR- cells",the inhibition of cell proliferation was less than that of enzalutamide alone
same,proliferation,[4],induces an inhibitory effect on proliferation regardless of the androgen receptor status of the tumours
